In patent publication US20230085307A1, “PYRIDAZINONE COMPOUND AND HERBICIDE” (NISSAN CHEMICAL CORPORATION, priority 2019, published 2023):

Legend:
green foxtail [1] = assay: Test Example 5: herbicidal effect by foliage application, plastic box (Table 20, symbol G); format: in vivo, green foxtail (Setaria viridis); settings: foliage application, 320 g/ha, 3 weeks after application
Summary of the method: (§1)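 Plants sown in sterilized diluvial soil and grown 14 days in a greenhouse at 25° C to 30° C, then sprayed on the foliage with the compound's emulsion diluted in water to a predetermined herbicide amount. Injury to weeds and crops scored three weeks after application on a visual rating scale.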

oval-leafed pondweed = assay: Test Example 1: herbicidal activity, application before weed generation under submerged conditions (Table 16, symbol C); format: in vivo, oval-leafed pondweed (Monochoria vaginalis); settings: 320 g/ha applied herbicide
Summary of the method: (§2)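 Emulsion formulation, water-diluted to set dose, was put onto the flooded surface (4 cm depth, alluvial soil) the same day weeds were sown and 2.5-leaf rice transplanted. After 3 weeks at 25-30 °C under glass, each species was rated 0 (≤5% kill) to 5 (≥90% kill).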

barnyard grass [2] = assay: Test Example 5: herbicidal effect by foliage application, plastic box (Table 20, symbol H); format: in vivo, barnyard grass (Echinochloa crus-galli); settings: foliage application, 320 g/ha, 3 weeks after application
Summary of the method: as §1

chickweed = assay: Test Example 4: herbicidal effect by soil treatment (Table 19, symbol P); format: in vivo, common chickweed (Stellaria media); settings: 320 g/ha
Summary of the method: (§3)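 Seeds were sown in sterilized diluvial soil and covered with about 1.5 cm of soil. An emulsion formulation diluted with water to a predetermined herbicide amount was sprayed evenly onto the soil surface. Plants grew in a greenhouse at 25° C. to 30° C., and the effect was scored three weeks after application using criteria from an earlier test.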

velvetleaf [3] = assay: Test Example 4: herbicidal effect by soil treatment (Table 19, symbol M); format: in vivo, velvetleaf (Abutilon theophrasti); settings: 320 g/ha
Summary of the method: as §3

redroot pigweed = assay: Test Example 4: herbicidal effect by soil treatment (Table 19, symbol N); format: in vivo, redroot pigweed (Amaranthus retroflexus); settings: 320 g/ha
Summary of the method: as §3

southern crabgrass [4] = assay: Test Example 5: herbicidal effect by foliage application, plastic box (Table 20, symbol F); format: in vivo, southern crabgrass (Digitaria ciliaris); settings: foliage application, 320 g/ha, 3 weeks after application
Summary of the method: as §1

Italian ryegrass [5] = assay: Test Example 5: herbicidal effect by foliage application, plastic box (Table 20, symbol K); format: in vivo, Italian ryegrass (Lolium multiflorum); settings: foliage application, 320 g/ha, 3 weeks after application
Summary of the method: as §1

windgrass [6] = assay: Test Example 5: herbicidal effect by foliage application, plastic box (Table 20, symbol L); format: in vivo, windgrass (Apera spica-venti); settings: foliage application, 320 g/ha, 3 weeks after application
Summary of the method: as §1

barnyard grass [7] = assay: Test Example 3: herbicidal effect by foliage application, Wagner pot (Table 18, symbol H); format: in vivo, barnyard grass (Echinochloa crus-galli); settings: 320 g/ha
Summary of the method: (§4)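 Plants were sown in alluvial soil held under 0.1–0.5 cm standing water and grown 14 days in a greenhouse at 25–30 °C. An emulsifiable formulation, water-diluted to the set dose, was then sprayed onto the foliage, and effects were scored three weeks later using previously defined criteria.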

southern crabgrass [8] = assay: Test Example 4: herbicidal effect by soil treatment (Table 19, symbol F); format: in vivo, southern crabgrass (Digitaria ciliaris); settings: 320 g/ha
Summary of the method: as §3

persian speedwell [9] = assay: Test Example 4: herbicidal effect by soil treatment (Table 19, symbol R); format: in vivo, Persian speedwell (Veronica persica); settings: 320 g/ha
Summary of the method: as §3

barnyard grass [10] = assay: Test Example 4: herbicidal effect by soil treatment (Table 19, symbol H); format: in vivo, barnyard grass (Echinochloa crus-galli); settings: 320 g/ha
Summary of the method: as §3

rice flat sedge = assay: Test Example 3: herbicidal effect by foliage application, Wagner pot (Table 18, symbol E); format: in vivo, rice flat sedge (Cyperus iria); settings: 320 g/ha
Summary of the method: as §4

windgrass [11] = assay: Test Example 4: herbicidal effect by soil treatment (Table 19, symbol L); format: in vivo, windgrass (Apera spica-venti); settings: 320 g/ha
Summary of the method: as §3

Japanese bulrush = assay: Test Example 1: herbicidal activity, application before weed generation under submerged conditions (Table 16, symbol B); format: in vivo, Japanese bulrush (Schoenoplectus juncoides); settings: 320 g/ha applied herbicide
Summary of the method: as §2

blackgrass [12] = assay: Test Example 5: herbicidal effect by foliage application, plastic box (Table 20, symbol J); format: in vivo, blackgrass (Alopecurus myosuroides); settings: foliage application, 320 g/ha, 3 weeks after application
Summary of the method: as §1

velvetleaf [13] = assay: Test Example 5: herbicidal effect by foliage application, plastic box (Table 20, symbol M); format: in vivo, velvetleaf (Abutilon theophrasti); settings: foliage application, 320 g/ha, 3 weeks after application
Summary of the method: as §1

Italian ryegrass [14] = assay: Test Example 4: herbicidal effect by soil treatment (Table 19, symbol K); format: in vivo, Italian ryegrass (Lolium multiflorum); settings: 320 g/ha
Summary of the method: as §3

persian speedwell [15] = assay: Test Example 5: herbicidal effect by foliage application, plastic box (Table 20, symbol R); format: in vivo, Persian speedwell (Veronica persica); settings: foliage application, 320 g/ha, 3 weeks after application
Summary of the method: as §1

lambsquarters [16] = assay: Test Example 4: herbicidal effect by soil treatment (Table 19, symbol O); format: in vivo, lambsquarters (Chenopodium album); settings: 320 g/ha
Summary of the method: as §3

wild oat [17] = assay: Test Example 5: herbicidal effect by foliage application, plastic box (Table 20, symbol I); format: in vivo, wild oat (Avena fatua); settings: foliage application, 320 g/ha, 3 weeks after application
Summary of the method: as §1

wild oat [18] = assay: Test Example 4: herbicidal effect by soil treatment (Table 19, symbol I); format: in vivo, wild oat (Avena fatua); settings: 320 g/ha
Summary of the method: as §3

late watergrass = assay: Test Example 1: herbicidal activity, application before weed generation under submerged conditions (Table 16, symbol A); format: in vivo, late watergrass (Echinochloa oryzicola); settings: 320 g/ha applied herbicide
Summary of the method: as §2

blackgrass [19] = assay: Test Example 4: herbicidal effect by soil treatment (Table 19, symbol J); format: in vivo, blackgrass (Alopecurus myosuroides); settings: 320 g/ha
Summary of the method: as §3

green foxtail [20] = assay: Test Example 4: herbicidal effect by soil treatment (Table 19, symbol G); format: in vivo, green foxtail (Setaria viridis); settings: 320 g/ha
Summary of the method: as §3

Chinese sprangletop = assay: Test Example 3: herbicidal effect by foliage application, Wagner pot (Table 18, symbol D); format: in vivo, chinese sprangletop (Leptochloa chinensis); settings: 320 g/ha
Summary of the method: as §4

lambsquarters [21] = assay: Test Example 5: herbicidal effect by foliage application, plastic box (Table 20, symbol O); format: in vivo, lambsquarters (Chenopodium album); settings: foliage application, 320 g/ha, 3 weeks after application
Summary of the method: as §1

| Compound | effect on green foxtail (G) (green foxtail [1]) | Herbicidal effect on C: oval-leafed pondweed (grade 0-5) (oval-leafed pondweed) | effect on barnyard grass (H) (barnyard grass [2]) | herbicidal effect rating, P: chickweed (chickweed) | herbicidal effect rating, M: velvetleaf (velvetleaf [3]) | herbicidal effect rating, N: redroot pigweed (redroot pigweed) | effect on southern crabgrass (F) (southern crabgrass [4]) | effect on Italian ryegrass (K) (Italian ryegrass [5]) | effect on windgrass (L) (windgrass [6]) | herbicidal effect on H (barnyard grass), rating 0-5 (barnyard grass [7]) | herbicidal effect rating, F: southern crabgrass (southern crabgrass [8]) | herbicidal effect rating, R: persian speedwell (persian speedwell [9]) | herbicidal effect rating, H: barnyard grass (barnyard grass [10]) | herbicidal effect on E (rice flat sedge), rating 0-5 (rice flat sedge) | herbicidal effect rating, L: windgrass (windgrass [11]) | Herbicidal effect on B: Japanese bulrush (grade 0-5) (Japanese bulrush) | effect on blackgrass (J) (blackgrass [12]) | effect on velvetleaf (M) (velvetleaf [13]) | herbicidal effect rating, K: Italian ryegrass (Italian ryegrass [14]) | effect on persian speedwell (R) (persian speedwell [15]) | further results |
| --- | --- | --- | --- | --- | --- | --- | --- | --- | --- | --- | --- | --- | --- | --- | --- | --- | --- | --- | --- | --- | --- |
| CCOC(=O)Oc1c(C)nn(C)c(=O)c1-c1c(-c2ccc(F)cc2)sc2ccc(F)cc12 [2-004] | 5 (Herbicidal rate of 90% or more (almost completely withered)) | 2 (Herbicidal rate of 20% or more and less than 40%) | 4 (Herbicidal rate of 70% or more and less than 90%) | 5 (Herbicidal rate of 90% or more (almost completely withered)) | 3 (Herbicidal rate of 40% or more and less than 70%) | 5 (Herbicidal rate of 90% or more (almost completely withered)) | 4 (Herbicidal rate of 70% or more and less than 90%) | 5 (Herbicidal rate of 90% or more (almost completely withered)) | 3 (Herbicidal rate of 40% or more and less than 70%) | 5 (Herbicidal rate of 90% or more (almost completely withered)) | 4 (Herbicidal rate of 70% or more and less than 90%) | 1 (Herbicidal rate of 5% or more and less than 20%) | 4 (Herbicidal rate of 70% or more and less than 90%) | 4 (Herbicidal rate of 70% or more and less than 90%) | 0 (Herbicidal rate of 5% or less (almost no effect)) | 2 (Herbicidal rate of 20% or more and less than 40%) | 4 (Herbicidal rate of 70% or more and less than 90%) | 5 (Herbicidal rate of 90% or more (almost completely withered)) | 5 (Herbicidal rate of 90% or more (almost completely withered)) | 5 (Herbicidal rate of 90% or more (almost completely withered)) | herbicidal effect rating, O: lambsquarters (lambsquarters [16]): 5 (Herbicidal rate of 90% or more (almost completely withered)); effect on wild oat (I) (wild oat [17]): 0 (Herbicidal rate of 5% or less (almost no effect)); herbicidal effect rating, I: wild oat (wild oat [18]): 0 (Herbicidal rate of 5% or less (almost no effect)); Herbicidal effect on A: late watergrass (grade 0-5) (late watergrass): 0 (Herbicidal rate of 5% or less (almost no effect)); herbicidal effect rating, J: blackgrass (blackgrass [19]): 0 (Herbicidal rate of 5% or less (almost no effect)); herbicidal effect rating, G: green foxtail (green foxtail [20]): 5 (Herbicidal rate of 90% or more (almost completely withered)); herbicidal effect on D (Chinese sprangletop), rating 0-5 (Chinese sprangletop): 3 (Herbicidal rate of 40% or more and less than 70%); effect on lambsquarters (O) (lambsquarters [21]): 3 (Herbicidal rate of 40% or more and less than 70%) |
| Cc1nn(C)c(=O)c(-c2c(-c3ccc(F)cc3)sc3ccc(F)cc23)c1OC(=O)c1ccccc1Cl [2-005] | 5 (Herbicidal rate of 90% or more (almost completely withered)) | 2 (Herbicidal rate of 20% or more and less than 40%) | 4 (Herbicidal rate of 70% or more and less than 90%) | 4 (Herbicidal rate of 70% or more and less than 90%) | 4 (Herbicidal rate of 70% or more and less than 90%) | 4 (Herbicidal rate of 70% or more and less than 90%) | 5 (Herbicidal rate of 90% or more (almost completely withered)) | 4 (Herbicidal rate of 70% or more and less than 90%) | 0 (Herbicidal rate of 5% or less (almost no effect)) | 5 (Herbicidal rate of 90% or more (almost completely withered)) | 5 (Herbicidal rate of 90% or more (almost completely withered)) | 3 (Herbicidal rate of 40% or more and less than 70%) | 4 (Herbicidal rate of 70% or more and less than 90%) | 5 (Herbicidal rate of 90% or more (almost completely withered)) | 0 (Herbicidal rate of 5% or less (almost no effect)) | 2 (Herbicidal rate of 20% or more and less than 40%) | 3 (Herbicidal rate of 40% or more and less than 70%) | 4 (Herbicidal rate of 70% or more and less than 90%) | 4 (Herbicidal rate of 70% or more and less than 90%) | 4 (Herbicidal rate of 70% or more and less than 90%) | herbicidal effect rating, O: lambsquarters (lambsquarters [16]): 4 (Herbicidal rate of 70% or more and less than 90%); effect on wild oat (I) (wild oat [17]): 0 (Herbicidal rate of 5% or less (almost no effect)); herbicidal effect rating, I: wild oat (wild oat [18]): 0 (Herbicidal rate of 5% or less (almost no effect)); Herbicidal effect on A: late watergrass (grade 0-5) (late watergrass): 0 (Herbicidal rate of 5% or less (almost no effect)); herbicidal effect rating, J: blackgrass (blackgrass [19]): 0 (Herbicidal rate of 5% or less (almost no effect)); herbicidal effect rating, G: green foxtail (green foxtail [20]): 5 (Herbicidal rate of 90% or more (almost completely withered)); herbicidal effect on D (Chinese sprangletop), rating 0-5 (Chinese sprangletop): 3 (Herbicidal rate of 40% or more and less than 70%); effect on lambsquarters (O) (lambsquarters [21]): 3 (Herbicidal rate of 40% or more and less than 70%) |
